Results reported in patent publication US8962637B2, “Bicyclic compounds and their uses as dual c-SRC/JAK inhibitors” (Debiopharm S.A., priority 2010, dated 2015).

Experiments:
Mda-Mb-231 cells = assay: Cell viability assay (XTT assay), Mda-Mb-231; assay type: cell-based; settings: Homo sapiens, 72 hrs
Description: Mda-Mb-231 or A549 cells were seeded onto a 96-well micro plate. Next day compounds were added to cells and incubated for 72 hrs. Compound treatment was done in triplicates. After 72 hrs cell culture media was aspirated from the wells and XTT working solution was added and plates were incubated for 2-5 hrs. The absorbance of the samples was measured with a spectrophotometer at a wavelength of 465 nm. EC50 values were calculated using Graphpad Prism. Tumor cell lines used in the examples of the present invention were procured from ATCC. Description of the cell lines is included in the following table: […]

JAK2 = JAK2 (Homo sapiens (Human), UniProt O60674); assay: TR-FRET JAK2 kinase assay; assay type: biochemical; settings: ATP 10 μM; for inhibition at 0.1 µM: read-out: JAK2 % inhibition at 100 nM, 100 nM; for inhibition at 1 µM: read-out: JAK2 % inhibition at 1 μM
JAK2, sequence (O60674 whole entry): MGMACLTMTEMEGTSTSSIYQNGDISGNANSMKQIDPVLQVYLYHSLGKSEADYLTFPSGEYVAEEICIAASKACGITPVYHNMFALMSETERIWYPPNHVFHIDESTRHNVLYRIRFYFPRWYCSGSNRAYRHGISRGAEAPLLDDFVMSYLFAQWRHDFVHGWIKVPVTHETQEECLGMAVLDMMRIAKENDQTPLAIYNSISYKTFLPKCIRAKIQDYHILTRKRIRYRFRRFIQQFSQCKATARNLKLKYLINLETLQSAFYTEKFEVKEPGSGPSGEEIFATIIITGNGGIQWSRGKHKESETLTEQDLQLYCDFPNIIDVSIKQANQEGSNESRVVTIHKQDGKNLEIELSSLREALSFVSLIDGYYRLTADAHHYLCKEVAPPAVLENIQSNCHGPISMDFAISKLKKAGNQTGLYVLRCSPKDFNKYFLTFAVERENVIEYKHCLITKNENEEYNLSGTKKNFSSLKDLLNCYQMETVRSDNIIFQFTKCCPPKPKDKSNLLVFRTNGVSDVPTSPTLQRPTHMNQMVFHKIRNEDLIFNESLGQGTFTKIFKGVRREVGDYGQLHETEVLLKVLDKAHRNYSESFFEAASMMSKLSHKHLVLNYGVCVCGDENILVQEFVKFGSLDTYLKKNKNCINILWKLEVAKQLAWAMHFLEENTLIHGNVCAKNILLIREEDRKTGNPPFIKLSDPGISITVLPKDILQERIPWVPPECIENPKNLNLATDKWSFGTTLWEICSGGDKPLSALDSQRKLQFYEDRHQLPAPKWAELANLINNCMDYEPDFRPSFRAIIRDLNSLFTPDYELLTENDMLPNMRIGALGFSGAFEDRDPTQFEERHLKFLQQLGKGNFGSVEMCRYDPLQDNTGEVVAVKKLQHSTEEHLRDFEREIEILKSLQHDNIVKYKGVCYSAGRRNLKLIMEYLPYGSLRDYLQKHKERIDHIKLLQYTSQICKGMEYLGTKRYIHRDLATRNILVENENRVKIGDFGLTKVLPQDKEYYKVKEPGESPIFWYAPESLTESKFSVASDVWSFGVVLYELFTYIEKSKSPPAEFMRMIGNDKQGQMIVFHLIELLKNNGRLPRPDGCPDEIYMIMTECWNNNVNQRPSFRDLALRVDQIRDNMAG
Description: (§1) Compounds were screened in the TR-FRET assay for JAK2 and c-Src kinase inhibition. Ultra light poly GT (Perkin Elmer) was used as the substrate for JAK2 and c-Src with the ATP concentration of 10 μM and 50 μM, respectively. […] The dose-response curve fitting was done using GraphPad Prism software.

c-Src = c-Src (Homo sapiens (Human), UniProt P12931); assay: TR-FRET c-Src kinase assay; assay type: biochemical; settings: ATP 50 μM; for inhibition at 0.1 µM: read-out: c-SRC % inhibition at 100 nM, 100 nM; for inhibition at 1 µM: read-out: c-SRC % inhibition at 1 μM
c-Src, sequence (P12931 whole entry, looked up): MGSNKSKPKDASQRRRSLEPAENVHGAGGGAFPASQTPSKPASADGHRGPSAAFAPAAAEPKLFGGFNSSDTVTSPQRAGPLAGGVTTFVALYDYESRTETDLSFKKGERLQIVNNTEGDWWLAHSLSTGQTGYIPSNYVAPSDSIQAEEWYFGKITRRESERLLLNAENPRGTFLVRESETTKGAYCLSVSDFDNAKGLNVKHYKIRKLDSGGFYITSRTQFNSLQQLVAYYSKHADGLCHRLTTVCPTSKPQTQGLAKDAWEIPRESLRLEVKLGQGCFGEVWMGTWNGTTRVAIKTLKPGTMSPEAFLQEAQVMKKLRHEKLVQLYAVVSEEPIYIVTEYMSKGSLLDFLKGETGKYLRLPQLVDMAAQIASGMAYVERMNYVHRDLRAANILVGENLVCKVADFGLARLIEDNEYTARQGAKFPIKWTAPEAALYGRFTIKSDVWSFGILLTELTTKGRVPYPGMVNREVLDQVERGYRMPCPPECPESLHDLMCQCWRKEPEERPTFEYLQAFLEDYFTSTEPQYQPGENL
Description: as §1

pStat3 = assay: In-Cell-Western blot assay for pStat3 (ICW) in A431 cells; assay type: cell-based; settings: Homo sapiens, A-431, 2 hrs, read-out: pSTAT3 inhibition
Description: A431 cells were seeded onto a 96-well micro plate. After overnight serum starvation cells were incubated with compounds for 2 hrs. Cells were fixed with 4% paraformaldehyde in PBS and then permeabilized with 0.1% Triton X-100 in PBS (PBST). Cells were blocked with 5% BSA in PBST for 2 hrs, followed by overnight incubation with phospho Stat3 antibody. Cells were washed and incubated with europium-labeled anti-rabbit secondary antibody for 2 hrs. After washing enhancement solution was added to the wells. The micro-plate was read on the Victor instrument at the Europium setting. The Hoechst readings were used to normalize for cell number. IC50 values were calculated with the normalized europium values using Graphpad Prism.

| SMILES | EC50 (Mda-Mb-231 cells) | IC50 (JAK2) | IC50 (c-Src) | inhibition at 0.1 µM (JAK2) | inhibition at 1 µM (JAK2; 1 μM) | inhibition at 0.1 µM (c-Src) | inhibition at 1 µM (c-Src) | IC50 (pStat3) | JAK2 % inhibition at 1 μM (JAK2; 1 μM) |
| --- | --- | --- | --- | --- | --- | --- | --- | --- | --- |
| Cc1ccc(NC(=O)CC2CCCC2)cc1N1CCc2nc(Nc3ccc(OCCN4CCCC4)cc3)ncc2C1 [Compound 108, 2-Cyclopentyl-N-(4-methyl-3-{2-[4-(2-pyrrolidin-1-yl-ethoxy)-phenylamino]-7,8-dihydro-5H-pyrido[4,3-d]pyrimidin-6-yl}-phenyl)-acetamide] | 2600 nM | 12 nM | 1 nM | 89% | 98% | 98% | 100% | – | – |
| Cc1ccc(NC(=O)c2cccc(C(F)(F)F)c2)cc1N1CCc2nc(Nc3ccc(C(=O)NC4CCN(C)CC4)nc3)ncc2C1 [Compound 148, 5-{6-[2-Methyl-5-(3-trifluoromethyl-benzoylamino)-phenyl]-5,6,7,8-tetrahydro-pyrido[4,3-d]pyrimidin-2-ylamino}-pyridine-2-carboxylic acid (1-methyl-piperidin-4-yl)-amide] | 34 nM | – | 2.4 nM | – | – | 99% | 99% | 270 nM | – |
| Cc1ccc(NC(=O)NC2CCCC2)cc1N1CCc2nc(Nc3ccc(OCCN4CCCC4)cc3)ncc2C1 [Compound 153, 1-Cyclopentyl-3-(4-methyl-3-{2-[4-(2-pyrrolidin-1-yl-ethoxy)-phenylamino]-7,8-dihydro-5H-pyrido[4,3-d]pyrimidin-6-yl}-phenyl)-urea] | 610 nM | 4 nM | – | – | – | 98% | 99% | – | – |
| Cc1ccc(NC(=O)CC(C)C(F)(F)F)cc1N1CCc2nc(Nc3ccc(OCCN4CCN(C)CC4)cc3)ncc2C1 (stereo not shown) [Compound 160, 4,4,4-Trifluoro-3-methyl-N-[4-methyl-3-(2-{4-[2-(4-methyl-piperazin-1-yl)-ethoxy]-phenylamino}-7,8-dihydro-5H-pyrido[4,3-d]pyrimidin-6-yl)-phenyl]-butyramide] | – | 15 nM | 66 nM | – | – | – | – | – | – |
| Cc1ccc(NC(=O)CCC(F)(F)F)cc1N1CCc2nc(Nc3ccc(C(=O)N4CCN(C)CC4)cc3)ncc2C1 [Compound 164, 4,4,4-Trifluoro-N-(4-methyl-3-{2-[4-(4-methyl-piperazine-1-carbonyl)-phenylamino]-7,8-dihydro-5H-pyrido[4,3-d]pyrimidin-6-yl}-phenyl)-butyramide] | – | 46 nM | 26 nM | 68% | 91% | 70% | 79% | – | – |
| Cc1ccc(NC(=O)c2cc(C(F)(F)F)ccn2)cc1N1CCc2nc(Nc3ccc(C(=O)N4CCN(C)CC4)cc3)ncc2C1 [Compound 167, 4-Trifluoromethyl-pyridine-2-carboxylic acid (4-methyl-3-{2-[4-(4-methyl-piperazine-1-carbonyl)-phenylamino]-7,8-dihydro-5H-pyrido[4,3-d]pyrimidin-6-yl}-phenyl)-amide] | – | 5.3 nM | 27 nM | 95% | 97% | 97% | 98% | 283 nM | – |
| Cc1ccc(NC(=O)c2cc(C(F)(F)F)ccn2)cc1N1CCc2nc(Nc3ccc(C(=O)N4CCN(C)CC4)cc3)ncc2C1=O [Compound 170, 4-Trifluoromethyl-pyridine-2-carboxylic acid (4-methyl-3-{2-[4-(4-methyl-piperazine-1-carbonyl)-phenylamino]-5-oxo-7,8-dihydro-5H-pyrido[4,3-d]pyrimidin-6-yl}-phenyl)-amide] | – | 70 nM | – | 64% | 93% | 26% | 58% | – | – |
| CNC(=O)c1ccc(Nc2ncc3c(n2)CCN(c2cc(NC(=O)c4cccc(C(F)(F)F)c4)ccc2Cl)C3)cc1 [Compound 176, N-{4-Chloro-3-[2-(4-methylcarbamoyl-phenylamino)-7,8-dihydro-5H-pyrido[4,3-d]pyrimidin-6-yl]-phenyl}- -5-trifluoromethyl-benzamide] | 330 nM | 15 nM | 13 nM | 89% | 94% | 87% | 96% | – | – |
| CNC(=O)c1ccc(Nc2ncc3c(n2)CCN(c2cc(NC(=O)c4cc(F)cc(C(F)(F)F)c4)ccc2Cl)C3)cc1 [Compound 177, N-{4-Chloro-3-[2-(4-methylcarbamoyl-phenylamino)-7,8-dihydro-5H-pyrido[4,3-d]pyrimidin-6-yl]-phenyl}-3-fluoro-5-trifluoromethyl-benzamide] | 120 nM | – | 20 nM | – | – | 86% | 96% | 290 nM | – |
| Cc1nc(Nc2ncc(C(=O)Nc3c(C)cccc3Cl)s2)cc(N2CCN(CCO)CC2)n1 [Dasatinib, reference compound] | 44 nM | – | – | – | – | – | – | – | 55% |

Second part, led by results:

| EC50 (Mda-Mb-231 cells) | IC50 (JAK2) | IC50 (c-Src) | inhibition at 0.1 µM (JAK2) | inhibition at 1 µM (JAK2; 1 μM) | inhibition at 0.1 µM (c-Src) | inhibition at 1 µM (c-Src) | IC50 (pStat3) | SMILES | JAK2 % inhibition at 1 μM (JAK2; 1 μM) |
| --- | --- | --- | --- | --- | --- | --- | --- | --- | --- |
| 3820 nM | 44 nM | 19 nM | – | – | – | – | – | Cc1ccc(NC(=O)c2cccc(Br)c2)cc1N1CCc2nc(Nc3ccc(N4CCN(C)CC4)cc3)ncc2C1=O [Compound 58, 3-Bromo-N-(4-methyl-3-{2-[4-(4-methyl-piperazin-1-yl)-phenylamino]-5-oxo-7,8-dihydro-5H-pyrido[4,3-d]pyrimidin-6-yl}-phenyl)-benzamide] | – |
| 2500 nM | 36 nM | – | – | – | 94% | 95% | – | Cc1ccc(NC(=O)c2cc(Cl)cc(C(F)(F)F)c2)cc1N1CCc2nc(Nc3ccc(N4CCN(C)CC4)cc3)ncc2C1=O [Compound 120, 3-Chloro-N-(4-methyl-3-{2-[4-(4-methyl-piperazin-1-yl)-phenylamino]-5-oxo-7,8-dihydro-5H-pyrido[4,3-d]pyrimidin-6-yl}-phenyl)-5-trifluoromethyl-benzamide] | – |
| – | 48 nM | 27 nM | 74% | 93% | 60% | 87% | – | Cc1ccc(NC(=O)c2cc(C(F)(F)F)ccn2)cc1N1CCc2nc(Nc3ccc(N4CCN(C)CC4)cc3)ncc2C1=O [Compound 166, 4-Trifluoromethyl-pyridine-2-carboxylic acid (4-methyl-3-{2-[4-(4-methyl-piperazin-1-yl)-phenylamino]-5-oxo-7,8-dihydro-5H-pyrido[4,3-d]pyrimidin-6-yl}-phenyl)-amide] | – |
| 1840 nM | – | – | 94% | 97% | 66% | 72% | – | CN1CCN(c2ccc(Nc3ncc4c(n3)CCN(c3cc(NC(=O)c5cc(F)cc(C(F)(F)F)c5)ccc3Cl)C4=O)cc2)CC1 [Compound 172, N-(4-Chloro-3-{2-[4-(4-methyl-piperazin-1-yl)-phenylamino]-5-oxo-7,8-dihydro-5H-pyrido[4,3-d]pyrimidin-6-yl]-phenyl)-3-fluoro-5-trifluoromethyl-benzamide] | – |
| – | – | – | 94% | 97% | 95% | 98% | 161 nM | CN1CCN(c2ccc(Nc3ncc4c(n3)CCN(c3cc(NC(=O)c5cccc(C(F)(F)F)c5)ccc3Cl)C4)cc2)CC1 [Compound 174, N-(4-Chloro-3-{2-[4-(4-methyl-piperazin-1-yl)-phenylamino]-7,8-dihydro-5H-pyrido[4,3-d]pyrimidin-6-yl}-phenyl)-3-trifluoromethyl-benzamide] | – |
